Measurements reported in patent US20120309739A1, “AKT / PKB INHIBITORS” (ALMAC DISCOVERY LIMITED, priority 2009, published 2012).
Structures can show the parent of a compound that is named as a salt.

What was measured:
Type in all cases: biochemical
AKT3 = molecular target: T1, AKT3 (Homo sapiens, UniProt Q9Y243); assay: AKT Kinase Assay (IMAP fluorescent polarisation) vs AKT3; details: activated AKT3, FAM Crosstide substrate
T1 construct: purchased SignalChem
Outline: (§1)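 IMAP fluorescence-polarisation read-out (485/528 nm) of 5′FAM-Crosstide phosphorylation; IC50 fitted by non-linear regression from % inhibition against vehicle. Fourteen-point half-log compound dilutions sat 45 min at room temperature with activated isoform at linear-range amount. ATP and substrate followed for 1 h, then a 1 h binding-reagent stop.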

AKT2 = molecular target: T2, AKT2 (Homo sapiens, UniProt P31751); assay: AKT Kinase Assay (IMAP fluorescent polarisation) vs AKT2; details: activated AKT2, FAM Crosstide substrate
T2 construct: purchased SignalChem
T2 sequence (P31751 whole entry): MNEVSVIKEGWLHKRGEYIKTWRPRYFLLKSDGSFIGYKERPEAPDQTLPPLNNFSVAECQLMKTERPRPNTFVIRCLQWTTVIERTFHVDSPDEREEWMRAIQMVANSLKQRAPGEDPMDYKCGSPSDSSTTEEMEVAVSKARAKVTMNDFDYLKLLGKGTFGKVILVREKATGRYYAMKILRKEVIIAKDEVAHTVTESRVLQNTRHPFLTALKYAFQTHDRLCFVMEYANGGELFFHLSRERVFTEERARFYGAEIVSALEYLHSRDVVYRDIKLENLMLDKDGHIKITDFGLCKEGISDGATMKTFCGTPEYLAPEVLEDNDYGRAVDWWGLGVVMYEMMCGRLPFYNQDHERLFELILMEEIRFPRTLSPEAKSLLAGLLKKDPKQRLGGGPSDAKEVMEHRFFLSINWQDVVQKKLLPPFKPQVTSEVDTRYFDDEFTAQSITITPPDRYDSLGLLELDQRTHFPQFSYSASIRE
Outline: as §1

AKT1 = molecular target: T3, AKT1 (Homo sapiens, UniProt P31749); assay: AKT Kinase Assay (IMAP fluorescent polarisation) vs AKT1; details: activated AKT1, FAM Crosstide substrate
T3 construct: purchased SignalChem
T3 sequence (P31749 whole entry): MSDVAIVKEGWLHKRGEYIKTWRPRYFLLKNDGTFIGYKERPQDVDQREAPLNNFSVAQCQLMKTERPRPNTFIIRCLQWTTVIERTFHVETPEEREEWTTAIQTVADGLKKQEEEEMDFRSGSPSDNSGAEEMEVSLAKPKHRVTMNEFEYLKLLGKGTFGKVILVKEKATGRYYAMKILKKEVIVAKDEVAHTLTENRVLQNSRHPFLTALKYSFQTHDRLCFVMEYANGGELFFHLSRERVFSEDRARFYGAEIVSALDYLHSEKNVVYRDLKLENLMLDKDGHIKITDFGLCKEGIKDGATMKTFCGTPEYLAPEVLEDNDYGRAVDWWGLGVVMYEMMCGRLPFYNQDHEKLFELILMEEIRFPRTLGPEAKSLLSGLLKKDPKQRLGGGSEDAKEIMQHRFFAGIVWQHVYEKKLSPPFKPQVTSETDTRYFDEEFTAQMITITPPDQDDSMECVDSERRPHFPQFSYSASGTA
Outline: as §1

T1 sequence (Q9Y243 whole entry): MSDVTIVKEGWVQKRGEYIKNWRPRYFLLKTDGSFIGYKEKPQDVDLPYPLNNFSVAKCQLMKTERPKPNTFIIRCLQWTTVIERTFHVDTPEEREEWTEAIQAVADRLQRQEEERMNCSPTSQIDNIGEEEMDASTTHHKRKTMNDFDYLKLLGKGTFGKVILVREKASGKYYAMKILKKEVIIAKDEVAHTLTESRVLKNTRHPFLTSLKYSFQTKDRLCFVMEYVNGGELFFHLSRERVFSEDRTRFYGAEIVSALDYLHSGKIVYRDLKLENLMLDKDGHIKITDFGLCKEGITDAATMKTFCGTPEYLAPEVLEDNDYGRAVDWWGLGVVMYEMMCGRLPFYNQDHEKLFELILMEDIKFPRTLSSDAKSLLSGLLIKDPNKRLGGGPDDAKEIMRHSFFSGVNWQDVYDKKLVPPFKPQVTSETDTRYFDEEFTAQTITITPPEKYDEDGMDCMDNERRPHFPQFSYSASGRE

Structure (SMILES)	IC50 (AKT3)	IC50 (AKT2)	IC50 (AKT1)
CSc1nc2oc(-c3ccc(C4(N)CCC4)cc3)c(-c3ccccc3)c2c(=O)n1CC#N [Example 96, 2-(6-(4-(1-Aminocyclobutyl)phenyl)-2-(methylthio)-4-oxo-5-phenylfuro[2,3-d]pyrimidin-3(4H)-yl)acetonitrile]	1000 to 10000 nM	≤ 100 nM	≤ 100 nM
CSc1nc2oc(-c3ccc(C4(N)CCC4)cc3)c(-c3ccccc3)c2c(=O)n1CC(N)=O [Example 97, 2-(6-(4-(1-Aminocyclobutyl)phenyl)-2-(methylthio)-4-oxo-5-phenylfuro[2,3-d]pyrimidin-3(4H)-yl)acetamide]	> 10000 nM	100 to 1000 nM	100 to 1000 nM
Cn1c(N2CCNC(=O)C2)nc2oc(-c3ccc(C4(N)CCC4)cc3)c(-c3ccccc3)c2c1=O [Example 99, 6-(4-(1-Aminocyclobutyl)phenyl)-3-methyl-2-(3-oxopiperazin-1-yl)-5-phenylfuro[2,3-d]pyrimidin-4(3H)-one]	1000 to 10000 nM	≤ 100 nM	1000 to 10000 nM
NC1(c2ccc(-c3oc4ncn(CC5CC5)c(=O)c4c3-c3ccccc3)cc2)CCC1 [Example 100]	1000 to 10000 nM	≤ 100 nM	1000 to 10000 nM
N#CCn1cnc2oc(-c3ccc(C4(N)CCC4)cc3)c(-c3ccccc3)c2c1=O [Example 101, 2-(6-(4-(1-Aminocyclobutyl)phenyl)-4-oxo-5-phenylfuro[2,3-d]pyrimidin-3(4H)-yl)acetonitrile]	1000 to 10000 nM	100 to 1000 nM	100 to 1000 nM
NC1(c2ccc(-c3oc4ncn(CCO)c(=O)c4c3-c3ccccc3)cc2)CCC1 [Example 102, 6-(4-(1-Aminocyclobutyl)phenyl)-3-(2-hydroxyethyl)-5-phenylfuro[2,3-d]pyrimidin-4(3H)-one, HCl]	1000 to 10000 nM	100 to 1000 nM	1000 to 10000 nM
NC1(c2ccc(-c3oc4ncn(CCF)c(=O)c4c3-c3ccccc3)cc2)CCC1 [Example 103, 6-(4-(1-Aminocyclobutyl)phenyl)-3-(2-fluoroethyl)-5-phenylfuro[2,3-d]pyrimidin-4(3H)-one, HCl]	1000 to 10000 nM	≤ 100 nM	100 to 1000 nM
COCCn1cnc2oc(-c3ccc(C4(N)CCC4)cc3)c(-c3ccccc3)c2c1=O [Example 105, 6-(4-(1-Aminocyclobutyl)phenyl)-3-(2-methoxyethyl)-5-phenylfuro[2,3-d]pyrimidin-4(3H)-one, HCl]	1000 to 10000 nM	100 to 1000 nM	1000 to 10000 nM
NC1(c2ccc(-c3oc4ncn(CC(F)(F)F)c(=O)c4c3-c3ccccc3)cc2)CCC1 [Example 106, 6-(4-(1-Aminocyclobutyl)phenyl)-5-phenyl-3-(2,12-trifluoroethyl)furo[2,3-d]pyrimidin-4(3H)-one, HCl]	1000 to 10000 nM	≤ 100 nM	1000 to 10000 nM
NC1(c2ccc(-c3oc4ncn(CC(F)F)c(=O)c4c3-c3ccccc3)cc2)CCC1 [Example 108, 6-(4-(1-Aminocyclobutyl)phenyl)-3-(2,2-difluoroethyl)-5-phenylfuro[2,3-d]pyrimidin-4(3H)-one]	1000 to 10000 nM	≤ 100 nM	1000 to 10000 nM
NC1(c2ccc(-c3oc4ccn(CC(F)(F)F)c(=O)c4c3-c3ccccc3)cc2)CCC1 [Example 109, 2-(4-(1-Aminocyclobutyl)phenyl)-3-Phenyl-5-(2,2,2-trifluoroethyl)furo[3,2-c]pyridin-4(5H)-one, HCl]	> 10000 nM	≤ 100 nM	1000 to 10000 nM
NC1(c2ccc(-c3oc4nc(NCCO)n(CCF)c(=O)c4c3-c3ccccc3)cc2)CCC1 [Example 110, 6-(4-(1-Aminocyclobutyl)phenyl)-3-(2-fluoroethyl)-2-(2-hydroxyethylamino)-5-phenylfuro[2,3-d]pyrimidin-4(3H)-one]	1000 to 10000 nM	≤ 100 nM	1000 to 10000 nM
NC1(c2ccc(-c3oc4nc(NCCO)nc(OCCF)c4c3-c3ccccc3)cc2)CCC1 [Example 111, 2-((6-(4-(1-Aminocyclobutyl)phenyl)-4-(2-fluoroethoxy)-5-phenylfuro[2,3-d]pyrimidin-2-yl)amino)ethanol]	1000 to 10000 nM	100 to 1000 nM	≤ 100 nM
Cn1cc(-c2cn(CCF)c(=O)c3c(-c4ccccc4)c(-c4ccc(C5(N)CCC5)cc4)oc23)cn1 [Example 113, 2-(4-(1-Aminocyclobutyl)phenyl)-5-(2-fluoroethyl)-7-(1-methyl-1H-pyrazol-4-yl)-3-phenylfuro[3,2-d]pyridin-4(5H)-one]	1000 to 10000 nM	100 to 1000 nM	100 to 1000 nM
NC1(c2ccc(-c3oc4nc(NCCO)n(CC(F)(F)F)c(=O)c4c3-c3ccccc3)cc2)CCC1 [Example 121, 6-(4-(1-Aminocyclobutyl)phenyl)-2-((2-hydroxyethyl)amino)-5-phenyl-3-(2,2,2-trifluoroethyl)furo[2,3-d]pyrimidin-4(3H)-one]	1000 to 10000 nM	≤ 100 nM	100 to 1000 nM
CNc1nc2oc(-c3ccc(C4(N)CCC4)cc3)c(-c3ccccc3)c2c(=O)n1CC(F)(F)F [Example 122, 6-(4-(1-Aminocyclobutyl)phenyl)-2-(methylamino)-5-phenyl-3-(2,2,2-trifluoroethyl)furo[2,3-d]pyrimidin-4(3H)-one]	1000 to 10000 nM	≤ 100 nM	100 to 1000 nM
Cc1nc2oc(-c3ccc(C4(N)CCC4)cc3)c(-c3ccccc3)c2c(=O)n1CC(F)(F)F [Example 123, 6-(4-(1-Aminocyclobutyl)phenyl)-2-methyl-5-phenyl-3-(2,2,2-trifluoroethyl)furo[2,3-d]pyrimidin-4(3H)-one]	1000 to 10000 nM	≤ 100 nM	100 to 1000 nM

Second part, the molecule after the results:

IC50 (AKT3)	IC50 (AKT2)	IC50 (AKT1)	Structure (SMILES)
> 10000 nM	100 to 1000 nM	100 to 1000 nM	C[C@@H](CO)Nc1nc2oc(-c3ccc(C4(N)CCC4)cc3)c(-c3ccccc3)c2c(=O)n1C [Example 98, (S)-6-(4-(1-Aminocyclobutyl)phenyl)-2-(1-hydroxypropan-2-ylamino)-3-methyl-5-phenylfuro[2,3-d]pyrimidin-4(3H)-one]
1000 to 10000 nM	≤ 100 nM	1000 to 10000 nM	CCn1cnc2oc(-c3ccc(C4(N)CCC4)cc3)c(-c3ccccc3)c2c1=O [Example 104, 6-(4-(1-Aminocyclobutyl)phenyl)-3-ethyl-5-phenylfuro[2,3-d]pyrimidin-4(3H)-one, HCl]
1000 to 10000 nM	100 to 1000 nM	1000 to 10000 nM	CC(C)n1cnc2oc(-c3ccc(C4(N)CCC4)cc3)c(-c3ccccc3)c2c1=O [Example 107, 6-(4-(1-Aminocyclobutyl)phenyl)-3-isopropyl-5-phenylfuro[2,3-d]pyrimidin-4(3H)-one, HCl]
> 10000 nM	≤ 100 nM	100 to 1000 nM	NC1(c2ccc(-c3oc4c(Br)cn(CCF)c(=O)c4c3-c3ccccc3)cc2)CCC1 [Example 112]
1000 to 10000 nM	100 to 1000 nM	100 to 1000 nM	Cn1cc(-c2cn(C)c(=O)c3c(-c4ccccc4)c(-c4ccc(C5(N)CCC5)cc4)oc23)cn1 [Example 114, 2-(4-(1-Aminocyclobutyl)phenyl)-5-methyl-7-(1-methyl-1H-pyrazol-4-yl)-3-phenylfuro[3,2-c]pyridin-4(5H)-one]
> 10000 nM	1000 to 10000 nM	100 to 1000 nM	Cn1cc(-c2cncnc2)c2oc(-c3ccc(C4(N)CCC4)cc3)c(-c3ccccc3)c2c1=O [Example 115, 2-(4-(1-Aminocyclobutyl)phenyl)-5-methyl-3-phenyl-7-(pyrimidin-5-yl)furo[3,2-c]pyridin-4(5H)-one]
> 10000 nM	100 to 1000 nM	≤ 100 nM	Cn1cc(-c2ccn[nH]2)c2oc(-c3ccc(C4(N)CCC4)cc3)c(-c3ccccc3)c2c1=O [Example 116, 2-(4-(1-Aminocyclobutyl)phenyl)-5-methyl-3-phenyl-7-(1H-pyrazol-5-yl)furo[3,2-c]pyridin-4(5H)-one]
1000 to 10000 nM	100 to 1000 nM	100 to 1000 nM	Cn1cc(C(N)=O)c2oc(-c3ccc(C4(N)CCC4)cc3)c(-c3ccccc3)c2c1=O [Example 117, 2-(4-(1-Aminocyclobutyl)phenyl)-5-methyl-4-oxo-3-phenyl-4,5-dihydrofuro[3,2-c]pyridine-7-carboxamide]
1000 to 10000 nM	100 to 1000 nM	≤ 100 nM	COC(=O)c1cn(C)c(=O)c2c(-c3ccccc3)c(-c3ccc(C4(N)CCC4)cc3)oc12 [Example 118, Methyl 2-(4-(1-aminocyclobutyl)phenyl)-5-methyl-4-oxo-3-phenyl-4,5-dihydrofuro[3,2-c]pyridine-7-carboxylate]
> 10000 nM	100 to 1000 nM	100 to 1000 nM	CNC(=O)c1cn(C)c(=O)c2c(-c3ccccc3)c(-c3ccc(C4(N)CCC4)cc3)oc12 [Example 119, 2-(4-(1-Aminocyclobutyl)phenyl)-N,5-dimethyl-4-oxo-3-phenyl-4,5-dihydrofuro[3,2-c]pyridine-7-carboxamide]
> 10000 nM	100 to 1000 nM	100 to 1000 nM	Cn1cc(C(=O)NCCO)c2oc(-c3ccc(C4(N)CCC4)cc3)c(-c3ccccc3)c2c1=O [Example 120, 2-(4-(1-Aminocyclobutyl)phenyl)-N-(2-hydroxyethyl)-5-methyl-4-oxo-3-phenyl-4,5-dihydrofuro[3,2-c]pyridine-7-carboxamide]
> 10000 nM	100 to 1000 nM	100 to 1000 nM	Cn1c(=O)[nH]c2oc(-c3ccc(C4(N)CCC4)cc3)c(-c3ccccc3)c2c1=O [Example 124, 6-(4-(1-Aminocyclobutyl)phenyl)-3-methyl-5-phenylfuro[2,3-d]pyrimidine-2,4(1H,3H)-dione hydrochloride]
> 10000 nM	1000 to 10000 nM	100 to 1000 nM	Cn1c(=O)c2c(-c3ccccc3)c(-c3ccc(C4(N)CCC4)cc3)oc2n(C)c1=O [Example 125, 6-(4-(1-Aminocyclobutyl)phenyl)-1,3-dimethyl-5-phenylfuro[2,3-d]pyrimidine-2,4(1H,3H)-dione]
